Measurements published in PubChem BioAssay AID179 (DTP/NCI, 2004).
Active and inactive are the calls of the source.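 How the source made its calls: active means compounds giving half or more protection of infected cells from virus-caused growth loss, again on retest; inactive means the rest.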

Test system: CEM cells HIV-1 protection, formazan growth assay
Test: NCI AIDS Antiviral Assay
Details: for IC50: measured here: growth of uninfected CEM cells
Outline: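 Protection of CEM cells against HIV-1 measured as cell growth via soluble formazan read-out, with five concentrations tested on both infected and uninfected cells; failure to protect may reflect toxicity.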

Structure (SMILES)	EC50 [µM]	IC50 [µM]	outcome
NC(=O)C(c1ccccc1)N1CCCC1 (centres undefined)	> 200	> 200	–
O=C(NNC(=O)c1ccccc1S)c1ccccc1S	4.17	14.5	–
O/N=C1\C(=C\c2ccc3c(c2)OCCO3)CCCC1C(NO)c1ccc2c(c1)OCCO2 (centres undefined)	> 16.6	> 16.6	–
Cc1ccc(C(=O)Oc2ccccc2)cc1N=NN(C)C	> 25.7	> 25.7	–
COC1=NCN=C2SC=C(N)N=C12	> 1070	562	–
CCC/C=C/C=C/C(=O)OC1C(C)C2(O)C3C=C(C)C(=O)C3CC(COC(C)=O)=CC2C2C(C)(C)C12OC(=O)C(C)C (centres undefined)	0.977	1.02	–
COc1ccc2c(O)c(S(=O)(=O)c3ccc(Cl)cc3)c(=O)oc2c1	> 200	129	–
COC1/C=C/OC2(C)Oc3c(C)c(O)c4c(O)c(c(/C=N/N5CC(C)N(C(=O)c6ccccc6)C(C)C5)c(O)c4c3C2=O)NC(=O)C(C)=C/C=C/C(C)C(O)C(C)C(O)C(C)C(OC(C)=O)C1C (centres undefined)	> 200	6.46	–
CC(=O)N1c2ccccc2C2=NN=C(N(C)C)SC21 (centres undefined)	–	–	inactive
COC1CC(C)(NC(C)=O)C2OC(c3ccccc3)OCC2O1 (centres undefined)	> 200	> 200	–
C[N+]1(CCCl)CCc2cccc([N+](=O)[O-])c2C1 (centres undefined)	> 200	97.7	–
C=CCN(N=O)C(=O)N(CCCCC(NC(C)=O)C(=O)NCc1ccccc1)Cc1ccccc1 (centres undefined)	> 28.2	> 28.2	–
Nc1c(S(=O)(=O)O)cc2cc(S(=O)(=O)O)ccc2c1N=Nc1ccc(-c2ccc(N=Nc3c(N)c(S(=O)(=O)O)cc4cc(S(=O)(=O)O)ccc34)c(S(=O)(=O)O)c2)cc1	–	–	active
Cc1ccc(NC(=S)Nc2ccccc2C)nc1	> 200	0.776	–
N#Cc1ncc(C[P+](c2ccccc2)(c2ccccc2)c2ccccc2)nc1N	> 200	170	–
CCOC(=O)c1cc2sc(NC(=O)c3cccs3)nc2o1	–	–	inactive
O=C(O)c1ccccc1C(=O)Cc1ccccc1	> 200	> 200	–
C=CC1(C)CCC(C(C)C(=O)C(C=C(C)C)OC(C)=O)C12C(=O)Oc1ccccc1C2=O (centres undefined)	> 30.9	29.5	–
C=CCc1cc(C=C(C#N)C#N)cc(OC)c1O	> 200	97.7	–
C=CCC(C=C=CCN(C)C)CO (centres undefined)	> 1200	631	–
Cn1cnc([N+](=O)[O-])c1Sc1n[nH]c(-c2ccc(Cl)cc2)n1	> 107	6.76	–

Structure (SMILES)	EC50 [µM]	IC50 [µM]	outcome
O=C1N[C@@H]2CCC[C@@H]2[C@@H]1c1ccc(Cl)cc1	> 380	155	–
CCN(CC)CCCC(C)Nc1cc(-c2ccccc2)nc2cc(OC)ccc12 (centres undefined)	> 363	0.741	–
CCC1CCC2c3c([nH]c4ccccc34)C3C(=O)N(c4ccc(OC)cc4)C(=O)C3C2C1 (centres undefined)	33.9	> 200	–
COC(=O)c1cc(C(=CCC[C@H]2CC[C@@]3(C)C(CC[C@@H]4C3CC[C@@]3(C)C4CC[C@@H]3[C@H](C)CCCC(C)C)C2)c2cc(Cl)c(OC)c(C(=O)OC)c2)cc(Cl)c1OC (some centres undefined)	> 15.8	> 15.8	–
COc1ccc(/C=c2\sc3nc(-c4ccccc4)nn3c2=O)cc1	182	195	–
Cc1ccccc1N=C1SCC(=O)N1c1ccccc1C	141	191	–
CCC(C)C(NC(=O)c1ccccc1SC(=O)OCCCCCl)C(N)=O (centres undefined)	2.75	> 200	–
C#CCNC(=O)ON1C(=O)CCC1=O	> 1260	> 1260	–
COc1ccc(N2C(=O)C3CC4=CC(=O)C[C@H]4[C@H]32)cc1 (some centres undefined)	> 200	151	–
OC1CCCC1C(O)(C(F)(F)F)C(F)(F)F (centres undefined)	–	–	inactive
CC(=O)N1CN=C2Sc3ccccc3N2C1	> 200	> 200	–
CN1CCOC1(C)c1ccccc1O (centres undefined)	> 200	> 200	–
COc1cc2c(oc(=O)c3c4oc([Si](C)(C)C)cc4cc(OC)c23)c2cccc(O)c12	> 1.74	> 1.74	–
Nc1c(Cl)cccc1-c1c[nH]cc1Cl	> 794	> 100	–
COc1ccc(/C=C2\NC(=S)N(CN3CCOCC3)C2=O)cc1	> 200	46.8	–
CSC1(SC)CCCCCCCCCCC1	> 200	158	–
COc1cc([N+](=O)[O-])c(S(=O)(=O)O)cc1N	> 1000	> 1000	–
COC(=O)N1C=CC2ON=C(OC)C2C1c1ccccc1 (centres undefined)	> 46.8	> 46.8	–
CCOC(=O)c1nc2c(OC)nn(O)cc-2c1Br	> 794	> 794	–
O=C1/C(=C/c2cc(O)c(O)c(O)c2)Oc2cc(O)cc(OC3OC(CO)C(O)C(O)C3O)c21 (centres undefined)	–	–	inactive
N#C/C=C\c1ccc(-c2cc(C(F)(F)F)cc(C(F)(F)F)c2)o1	> 200	46.8	–

Structure (SMILES)	EC50 [µM]	IC50 [µM]	outcome
Cc1cccc(C)c1NC(=S)/N=C/C1=C(O)c2ccccc2C1=O	> 200	15.8	–
COc1cccc2c1C(=N)c1c(O)c3c(c(O)c1C2=O)C[C@@](O)(C(C)=O)C[C@@H]3OC1CC(N)C(O)C(C)O1 (some centres undefined)	> 0.2	0.00631	–
CCOC(=O)CC(=O)CSc1c(-c2ccccc2)c(=O)n(-c2ccccc2)c(=S)n1-c1ccccc1	> 200	72.4	–
COc1cc2c[n+](C)c3c4ccccc4ccc3c2cc1OC (tested in a mixture with another compound)	> 170	6.03	–
O=C1/C(=N\[O-])C(S(=O)(=O)[O-])=Cc2cc(S(=O)(=O)[O-])cc(O)c21.O=C1/C(=N\[O-])C(S(=O)(=O)[O-])=Cc2cc(S(=O)(=O)[O-])cc(O)c21.[Cu+2]	> 200	123	–
COc1cc2c(cc1OC)C13CCN4CC5CCOC6CC(=O)N2C1C6C5CC43 (centres undefined)	> 200	> 200	–
Cc1ccc2c(c1)CC1(Cc3c(C)cccc3C1=O)C2=O (centres undefined)	> 200	> 200	–
O=[N+]([O-])c1cccc(N=Cc2ccccc2O)c1	> 200	91.2	–
CC(=O)/C(=C/c1cccc(Br)c1)C(=O)c1ccccc1	> 21.9	11.2	–
Cc1ccc(-c2cnc(NC3OC(COC(=O)c4ccccc4)C(OC(=O)c4ccccc4)C(OC(=O)c4ccccc4)C3OC(=O)c3ccccc3)s2)cc1 (centres undefined)	> 200	13.8	–
CC1=[N+]([O-])C(C)(C)N(O)C1(C)C	> 200	> 200	–
Oc1ccccc1C1C=C(c2ccccc2)NC(N2CCCCC2)=C1c1nc2ccccc2[nH]1 (centres undefined)	–	–	inactive
COc1ccc(NS(=O)CCc2ccccc2)cc1 (centres undefined)	> 200	22.9	–
CC(C)(C)c1ccc(Oc2ccc3c(c2)-c2nc-3nc3[nH]c(nc4nc(nc5[nH]c(n2)c2ccc(Oc6ccc(C(C)(C)C)cc6C(C)(C)C)cc52)-c2cc(Oc5ccc(C(C)(C)C)cc5C(C)(C)C)ccc2-4)c2ccc(Oc4ccc(C(C)(C)C)cc4C(C)(C)C)cc32)c(C(C)(C)C)c1	> 9.77	> 9.77	–
Clc1ccc(-c2nn3c(C45CC6CC(CC(C6)C4)C5)nnc3s2)cc1	> 200	> 200	–
CC(=O)Oc1cccc2c1ccc1nonc12	> 174	28.2	–
COc1nc2c(c(=O)n1C)N=C(c1ccccc1)[C@H](C(CC(=O)c1ccccc1)c1ccccc1)C(c1ccccc1)N2 (some centres undefined)	–	–	inactive
Cn1ccnc1Cn1cc(-c2cccc(-c3cn[nH]c3)c2)cn1	–	–	inactive
Cc1cc(NC(=O)c2ccc(NC(=O)c3ccc(N)cc3)cc2)ccc1N=Nc1ccc2c(O)c(N=Nc3ccc(S(=O)(=O)O)cc3C)c(S(=O)(=O)O)cc2c1	6.17	> 100	–
C[C@@]12[C@H]3CC[C@@H]1[C@H](O)C(=O)N2CC3	> 200	> 200	–
N#C/C(=C\c1cccc(Br)c1)C(=O)c1ccccc1	> 115	50.1	–

Structure (SMILES)	EC50 [µM]	IC50 [µM]	outcome
CCOc1ccc(N=C2NC(=O)C(CC(=O)Nc3ccccc3[N+](=O)[O-])S2)cc1 (centres undefined)	> 316	> 316	–
CC(=O)c1cn(-c2ccc(Cl)cc2)c(=O)c2c(N)n[nH]c12	166	> 200	–
C/C(=C\C(=O)OCCCCCCCC(N)=O)C(O)[C@@H]1OCC(C/C=C/[C@@H](C)[C@H](C)O)[C@@H](O)[C@H]1O (some centres undefined)	> 200	> 200	–
COc1ccccc1C(=O)NO	> 200	> 200	–
C(#CCN1CCCCCC1)CN1CCCCCC1	182	> 200	–
O=C(CCCC(=O)NNC(=O)Nc1ccc(N=Nc2ccccc2)cc1)NNC(=O)Nc1ccc(N=Nc2ccccc2)cc1	> 200	> 200	–
Cc1noc(NS(=O)(=O)c2ccc(NC(=S)N/C=C(\C#N)C(N)=O)cc2)c1C	–	–	inactive
Brc1ccccc2cc(-c3ccccc3)nc1-2	–	–	inactive
CCN(CC)CCOc1ccc(/C(C#N)=C/c2cccc3ccccc23)cc1	> 200	1.78	–
Cc1cc(C)n(-c2c(O)ccc(O)c2-n2nc(C)cc2C)n1	> 229	120	–
Nc1cc(N)[nH]c(=S)n1	–	–	inactive
O=C1CS(=O)(=O)C(c2ccc(Cl)cc2)N1N1C(=O)CS(=O)(=O)C1c1ccc(Cl)cc1 (centres undefined)	> 200	5.75	–
COc1ccc2c(c1)O[C@]1(O)c3cc4c(cc3O[C@@H]1C2)OCO4	> 12	> 12	–
CC(=O)CCNc1ccc(-c2cc(-c3ccc(N(C)C)cc3)nc3ccc4ccccc4c23)cc1	> 200	102	–
O=CC(O)C(O)C(O)C(O)CON1C[C@@H](O)C(O)[C@@H](O)C1 (some centres undefined)	> 200	> 200	–
O=C(C(=NC12CC3CC(CC(C3)C1)C2)NNc1ccc([N+](=O)[O-])cc1[N+](=O)[O-])C(Br)C(=O)c1ccccc1 (centres undefined)	> 200	107	–
CN1CC(=O)N2Cc3ccccc3-n3cccc3C2C1 (centres undefined)	–	–	inactive
CC1(CO)OC(n2cnc3cncnc32)CC1O (centres undefined)	18.2	> 200	–
CC(=O)C1=C(C)N2C(=NC3=C(CCc4ccccc43)C2c2cccc(Br)c2)S1 (centres undefined)	> 200	81.3	–
NCCSSc1ccccc1C(=O)O	> 200	> 200	–
